Experimental data reported in patent US11771738B2 (Zoetis Services LLC, priority 2018, dated 2023).
Marks after values point to notes of the source that are not given here.

These molecules were tested on third stage larvae of Haemonchus contortus (assay: Haemonchus contortus, Larvae Stage 3 (HcL3) In Vitro Assay). Details: Haemonchus contortus third stage larvae in vitro; class mark appended to the Ex # in Table 3.
Type: cell-based
In the case of `CC(C)C[C@H]1C(=O)O[C@H](Cc2ccc(Cc3cccnc3)cc2)C(=O)N(C)[C@@H](CC(C)C)C(=O)O[C@H](C)C(=O)N(C)[C@@H](CC(C)C)C(=O)O[C@H](Cc2ccc(Cc3cccnc3)cc2)C(=O)N(C)[C@@H](CC(C)C)C(=O)O[C@H](C)C(=O)N1C` [Example 3-3], the “HcL3 MED” value is reported as 3-3^ (Examples with a carrot (^) have HcL3 MED values>1 and ≤3.3 μM).
`CC(C)C[C@H]1C(=O)O[C@H](Cc2ccc(Cc3nncs3)cc2)C(=O)N(C)[C@@H](CC(C)C)C(=O)O[C@H](C)C(=O)N(C)[C@@H](CC(C)C)C(=O)O[C@H](Cc2ccc(Cc3nncs3)cc2)C(=O)N(C)[C@@H](CC(C)C)C(=O)O[C@H](C)C(=O)N1C` [Example 3-14] was tested, and the “HcL3 MED” value was 3-14* (Examples with an asterisk (*) have HcL3 MED values≤1 μM).
In the case of `CC(C)C[C@H]1C(=O)O[C@H](Cc2ccc(Cc3ccccn3)cc2)C(=O)N(C)[C@@H](CC(C)C)C(=O)O[C@H](C)C(=O)N(C)[C@@H](CC(C)C)C(=O)O[C@H](Cc2ccc(Cc3ccccn3)cc2)C(=O)N(C)[C@@H](CC(C)C)C(=O)O[C@H](C)C(=O)N1C` [Example 3-27], the “HcL3 MED” value is reported as 3-27^ (Examples with a carrot (^) have HcL3 MED values>1 and ≤3.3 μM).
With `CC(C)C[C@H]1C(=O)O[C@H](Cc2ccc(Cc3nc(-c4ccccc4)cs3)cc2)C(=O)N(C)[C@@H](CC(C)C)C(=O)O[C@H](C)C(=O)N(C)[C@@H](CC(C)C)C(=O)O[C@H](Cc2ccc(Cc3nc(-c4ccccc4)cs3)cc2)C(=O)N(C)[C@@H](CC(C)C)C(=O)O[C@H](C)C(=O)N1C` [Example 3-36] the “HcL3 MED” value was 3-36* (Examples with an asterisk (*) have HcL3 MED values≤1 μM).
In the case of `CC(C)C[C@H]1C(=O)O[C@H](Cc2ccc(Cc3cscn3)cc2)C(=O)N(C)[C@@H](CC(C)C)C(=O)O[C@H](C)C(=O)N(C)[C@@H](CC(C)C)C(=O)O[C@H](Cc2ccc(Cc3cscn3)cc2)C(=O)N(C)[C@@H](CC(C)C)C(=O)O[C@H](C)C(=O)N1C` [Example 3-45], the “HcL3 MED” value is reported as 3-45* (Examples with an asterisk (*) have HcL3 MED values≤1 μM).
For `Cc1nc(C)c(Cc2ccc(C[C@H]3OC(=O)[C@H](CC(C)C)N(C)C(=O)[C@@H](C)OC(=O)[C@H](CC(C)C)N(C)C(=O)[C@@H](Cc4ccc(Cc5sc(C)nc5C)cc4)OC(=O)[C@H](CC(C)C)N(C)C(=O)[C@@H](C)OC(=O)[C@H](CC(C)C)N(C)C3=O)cc2)s1` [Example 3-52], the “HcL3 MED” value was 3-52* (Examples with an asterisk (*) have HcL3 MED values≤1 μM).
For `CC(C)C[C@H]1C(=O)O[C@H](Cc2ccc(Cc3ncccn3)cc2)C(=O)N(C)[C@@H](CC(C)C)C(=O)O[C@H](C)C(=O)N(C)[C@@H](CC(C)C)C(=O)O[C@H](Cc2ccc(Cc3ncccn3)cc2)C(=O)N(C)[C@@H](CC(C)C)C(=O)O[C@H](C)C(=O)N1C` [Example 3-73], the “HcL3 MED” value was 3-73* (Examples with an asterisk (*) have HcL3 MED values≤1 μM).
`Cc1nc(Cc2ccc(C[C@H]3OC(=O)[C@H](CC(C)C)N(C)C(=O)[C@@H](C)OC(=O)[C@H](CC(C)C)N(C)C(=O)[C@@H](Cc4ccc(Cc5csc(C)n5)cc4)OC(=O)[C@H](CC(C)C)N(C)C(=O)[C@@H](C)OC(=O)[C@H](CC(C)C)N(C)C3=O)cc2)cs1` [Example 3-76] was tested, and the “HcL3 MED” value was 3-76^ (Examples with a carrot (^) have HcL3 MED values>1 and ≤3.3 μM).
For `Cc1nc(Cc2ccc(C[C@H]3OC(=O)[C@H](CC(C)C)N(C)C(=O)[C@@H](C)OC(=O)[C@H](CC(C)C)N(C)C(=O)[C@@H](Cc4ccc(Cc5nc(C)oc5C)cc4)OC(=O)[C@H](CC(C)C)N(C)C(=O)[C@@H](C)OC(=O)[C@H](CC(C)C)N(C)C3=O)cc2)c(C)o1` [Example 3-81], the “HcL3 MED” value was 3-81^ (Examples with a carrot (^) have HcL3 MED values>1 and ≤3.3 μM).
For `COc1cc(Cc2ccc(C[C@H]3OC(=O)[C@H](CC(C)C)N(C)C(=O)[C@@H](C)OC(=O)[C@H](CC(C)C)N(C)C(=O)[C@@H](Cc4ccc(Cc5cnc(OC)c(OC)c5)cc4)OC(=O)[C@H](CC(C)C)N(C)C(=O)[C@@H](C)OC(=O)[C@H](CC(C)C)N(C)C3=O)cc2)cnc1OC` [Example 3-115], the “HcL3 MED” value was 3-115^ (Examples with a carrot (^) have HcL3 MED values>1 and ≤3.3 μM).
For `CC(C)C[C@H]1C(=O)O[C@H](Cc2ccc(Cc3cnn(C(F)F)c3)cc2)C(=O)N(C)[C@@H](CC(C)C)C(=O)O[C@H](C)C(=O)N(C)[C@@H](CC(C)C)C(=O)O[C@H](Cc2ccc(Cc3cnn(C(F)F)c3)cc2)C(=O)N(C)[C@@H](CC(C)C)C(=O)O[C@H](C)C(=O)N1C` [Example 3-119], the “HcL3 MED” value was 3-119* (Examples with an asterisk (*) have HcL3 MED values≤1 μM).
With `Cc1nnsc1C(O)c1ccc(C[C@H]2OC(=O)[C@H](CC(C)C)N(C)C(=O)[C@@H](C)OC(=O)[C@H](CC(C)C)N(C)C(=O)[C@@H](Cc3ccc(C(O)c4snnc4C)cc3)OC(=O)[C@H](CC(C)C)N(C)C(=O)[C@@H](C)OC(=O)[C@H](CC(C)C)N(C)C2=O)cc1` (some centres unmarked) [Example 3-126] the “HcL3 MED” value was 3-126* (Examples with an asterisk (*) have HcL3 MED values≤1 μM).
With `COc1cc(Cc2ccc(C[C@H]3OC(=O)[C@H](CC(C)C)N(C)C(=O)[C@@H](C)OC(=O)[C@H](CC(C)C)N(C)C(=O)[C@@H](Cc4ccc(Cc5ccnc(OC)c5)cc4)OC(=O)[C@H](CC(C)C)N(C)C(=O)[C@@H](C)OC(=O)[C@H](CC(C)C)N(C)C3=O)cc2)ccn1` [Example 3-192] the “HcL3 MED” value was 3-192^ (Examples with a carrot (^) have HcL3 MED values>1 and ≤3.3 μM).
In the case of `CC(C)C[C@H]1C(=O)O[C@H](Cc2ccc(Cc3ccnn3CC(C)C)cc2)C(=O)N(C)[C@@H](CC(C)C)C(=O)O[C@H](C)C(=O)N(C)[C@@H](CC(C)C)C(=O)O[C@H](Cc2ccc(Cc3ccnn3CC(C)C)cc2)C(=O)N(C)[C@@H](CC(C)C)C(=O)O[C@H](C)C(=O)N1C` [Example 3-211], the “HcL3 MED” value is reported as 3-211^ (Examples with a carrot (^) have HcL3 MED values>1 and ≤3.3 μM).
With `Cc1ncc(Cc2ccc(C[C@H]3OC(=O)[C@H](CC(C)C)N(C)C(=O)[C@@H](C)OC(=O)[C@H](CC(C)C)N(C)C(=O)[C@@H](Cc4ccc(Cc5cnc(C)o5)cc4)OC(=O)[C@H](CC(C)C)N(C)C(=O)[C@@H](C)OC(=O)[C@H](CC(C)C)N(C)C3=O)cc2)o1` [Example 3-298] the “HcL3 MED” value was 3-298^ (Examples with a carrot (^) have HcL3 MED values>1 and ≤3.3 μM).
For `CC(C)C[C@H]1C(=O)O[C@H](Cc2ccc(Cc3cc[nH]n3)cc2)C(=O)N(C)[C@@H](CC(C)C)C(=O)O[C@H](C)C(=O)N(C)[C@@H](CC(C)C)C(=O)O[C@H](Cc2ccc(Cc3cc[nH]n3)cc2)C(=O)N(C)[C@@H](CC(C)C)C(=O)O[C@H](C)C(=O)N1C` [Example 3-301], the “HcL3 MED” value was 3-301^ (Examples with a carrot (^) have HcL3 MED values>1 and ≤3.3 μM).
For `CCCn1nccc1Cc1ccc(C[C@H]2OC(=O)[C@H](CC(C)C)N(C)C(=O)[C@@H](C)OC(=O)[C@H](CC(C)C)N(C)C(=O)[C@@H](Cc3ccc(Cc4ccnn4CCC)cc3)OC(=O)[C@H](CC(C)C)N(C)C(=O)[C@@H](C)OC(=O)[C@H](CC(C)C)N(C)C2=O)cc1` [Example 3-303], the “HcL3 MED” value was 3-303* (Examples with an asterisk (*) have HcL3 MED values≤1 μM).
With `CC(C)C[C@H]1C(=O)O[C@H](Cc2ccc(Cc3ccnn3C(C)C)cc2)C(=O)N(C)[C@@H](CC(C)C)C(=O)O[C@H](C)C(=O)N(C)[C@@H](CC(C)C)C(=O)O[C@H](Cc2ccc(Cc3ccnn3C(C)C)cc2)C(=O)N(C)[C@@H](CC(C)C)C(=O)O[C@H](C)C(=O)N1C` [Example 3-305] the “HcL3 MED” value was 3-305* (Examples with an asterisk (*) have HcL3 MED values≤1 μM).
`CC(C)C[C@H]1C(=O)O[C@H](Cc2ccc(Cc3cnccc3C3CC3)cc2)C(=O)N(C)[C@@H](CC(C)C)C(=O)O[C@H](C)C(=O)N(C)[C@@H](CC(C)C)C(=O)O[C@H](Cc2ccc(Cc3cnccc3C3CC3)cc2)C(=O)N(C)[C@@H](CC(C)C)C(=O)O[C@H](C)C(=O)N1C` [Example 3-306] was tested, and the “HcL3 MED” value was 3-306* (Examples with an asterisk (*) have HcL3 MED values≤1 μM).

Same assay, conditions: approximately 96 hours incubation; multiple-resistant field isolate
For `COc1cc(F)ccc1Cc1ccc(C[C@H]2OC(=O)[C@H](CC(C)C)N(C)C(=O)[C@@H](C)OC(=O)[C@H](CC(C)C)N(C)C(=O)[C@@H](Cc3ccccc3)OC(=O)[C@H](CC(C)C)N(C)C(=O)[C@@H](C)OC(=O)[C@H](CC(C)C)N(C)C2=O)cc1` [Example 2-9], the “HcL3 MED (symbol after Ex#)” value was 2-9* (Examples with an asterisk (*) have HcL3 MED values≤1 μM).
`COc1ccccc1Cc1ccc(C[C@H]2OC(=O)[C@H](CC(C)C)N(C)C(=O)[C@@H](C)OC(=O)[C@H](CC(C)C)N(C)C(=O)[C@@H](Cc3ccccc3)OC(=O)[C@H](CC(C)C)N(C)C(=O)[C@@H](C)OC(=O)[C@H](CC(C)C)N(C)C2=O)cc1` [Example 2-12] was tested, and the “HcL3 MED (symbol after Ex#)” value was 2-12^ (Examples with a carrot (^) have HcL3 MED values>1 and ≤3.3 μM).
For `Cc1nn(C)cc1Cc1ccc(C[C@H]2OC(=O)[C@H](CC(C)C)N(C)C(=O)[C@@H](C)OC(=O)[C@H](CC(C)C)N(C)C(=O)[C@@H](Cc3ccccc3)OC(=O)[C@H](CC(C)C)N(C)C(=O)[C@@H](C)OC(=O)[C@H](CC(C)C)N(C)C2=O)cc1` [Example 4-3], the “HcL3 MED (symbol after Ex#)” value was 4-3^ (Examples with a carrot (^) have HcL3 MED values>1 and ≤3.3 μM).
For `CC(C)C[C@H]1C(=O)O[C@H](Cc2ccc(Cc3cccs3)cc2)C(=O)N(C)[C@@H](CC(C)C)C(=O)O[C@H](C)C(=O)N(C)[C@@H](CC(C)C)C(=O)O[C@H](Cc2ccccc2)C(=O)N(C)[C@@H](CC(C)C)C(=O)O[C@H](C)C(=O)N1C` [Example 4-5], the “HcL3 MED (symbol after Ex#)” value was 4-5^ (Examples with a carrot (^) have HcL3 MED values>1 and ≤3.3 μM).
With `COc1ncccc1Cc1ccc(C[C@H]2OC(=O)[C@H](CC(C)C)N(C)C(=O)[C@@H](C)OC(=O)[C@H](CC(C)C)N(C)C(=O)[C@@H](Cc3ccccc3)OC(=O)[C@H](CC(C)C)N(C)C(=O)[C@@H](C)OC(=O)[C@H](CC(C)C)N(C)C2=O)cc1` [Example 4-22] the “HcL3 MED (symbol after Ex#)” value was 4-22^ (Examples with a carrot (^) have HcL3 MED values>1 and ≤3.3 μM).
`CC(C)C[C@H]1C(=O)O[C@H](Cc2ccc(Cc3nccs3)cc2)C(=O)N(C)[C@@H](CC(C)C)C(=O)O[C@H](C)C(=O)N(C)[C@@H](CC(C)C)C(=O)O[C@H](Cc2ccccc2)C(=O)N(C)[C@@H](CC(C)C)C(=O)O[C@H](C)C(=O)N1C` [Example 4-31] was tested, and the “HcL3 MED (symbol after Ex#)” value was 4-31* (Examples with an asterisk (*) have HcL3 MED values≤1 μM).
In the case of `CC(C)C[C@H]1C(=O)O[C@H](Cc2ccc(Cc3cncs3)cc2)C(=O)N(C)[C@@H](CC(C)C)C(=O)O[C@H](C)C(=O)N(C)[C@@H](CC(C)C)C(=O)O[C@H](Cc2ccccc2)C(=O)N(C)[C@@H](CC(C)C)C(=O)O[C@H](C)C(=O)N1C` [Example 4-35], the “HcL3 MED (symbol after Ex#)” value is reported as 4-35^ (Examples with a carrot (^) have HcL3 MED values>1 and ≤3.3 μM).
